From patent US7405205B2, “Antitumor antisense sequences directed against R1 and R2 components of ribonucleotide reductase” (Lorus Therapeutics Inc., priority 1996, dated 2008)
Strand notation (5' to 3'): a small letter for the sugar, then the base; units joined by * are phosphorothioate-linked, units joined directly phosphodiester-linked; [ ] holds rarer units or linkages, { } end groups; capitals alone tell only the bases. d = 2'-deoxy (DNA)

test system: PC-3 prostrate cell adenocarcinoma; test: Relative colony forming efficiency after antisense treatment (Table 13); type: cell-based, human; conditions: 0.2 μM antisense oligodeoxyribonucleotide phosphorothioate; PC-3 cells; averages of 2-8 determinations

Point of comparison: “TGGCACCAACTGACTAATAT (antisense; DNA, all phosphorothioate, methylation of C not given here) [AS-II-1976-20]”, “Reduced relative colony forming efficiency, expressed as % inhibition, PC-3” value 88.16%. Against it:
- TCAGCATCCAAGGTAAAAGA (DNA, all phosphorothioate, methylation of C not given here) [AS-II-1338-20] — higher, 93.75%
- TCGCCTACTCTCTTCTCAAA (DNA, all phosphorothioate, methylation of C not given here) [AS-II-1278-20] — lower, 85.31%
- TGGCTGTGCTGGTTAAAGGA (DNA, all phosphorothioate, methylation of C not given here) [AS-II-1659-20] — lower, 81.56%
- TGGGACAGGGTGCACGGGCG (antisense dT*dG*dG*dG*dA*dC*dA*dG*dG*dG*dT*dG*dC*dA*dC*dG*dG*dG*dC*dG) [AS-II-130-20] — lower, 74.66%
- TTCATGGTGTGGCTAGTTGG (DNA, all phosphorothioate, methylation of C not given here) [AS-II-1438-20] — lower, 83.96%
- TTCTGGCAAAAGGTGATACT (DNA, all phosphorothioate, methylation of C not given here) [AS-II-1538-20] — lower, 84.71%
- TTTTAACTGGCTGTGCTGGT (DNA, all phosphorothioate, methylation of C not given here) [AS-II-1666-20] — lower, 86.06%

test system: MIA PaCa-2 pancreatic cell carcinoma; test: as above; type: cell-based, human; conditions: 0.2 μM antisense oligodeoxyribonucleotide phosphorothioate; MIA PaCa-2 cells; averages of 2-8 determinations

Point of comparison: “TGGCTGTGCTGGTTAAAGGA (DNA, all phosphorothioate, methylation of C not given here) [AS-II-1659-20]”, “Reduced relative colony forming efficiency, expressed as % inhibition, MIA PaCa-2” value 42.54%. Against it:
- TCAGCATCCAAGGTAAAAGA (DNA, all phosphorothioate, methylation of C not given here) [AS-II-1338-20] — higher, 79.17%
- TCGCCTACTCTCTTCTCAAA (DNA, all phosphorothioate, methylation of C not given here) [AS-II-1278-20] — higher, 57.05%
- TGGGACAGGGTGCACGGGCG (antisense dT*dG*dG*dG*dA*dC*dA*dG*dG*dG*dT*dG*dC*dA*dC*dG*dG*dG*dC*dG) [AS-II-130-20] — higher, 82.11%
- TTCATGGTGTGGCTAGTTGG (DNA, all phosphorothioate, methylation of C not given here) [AS-II-1438-20] — lower, 42.13%
- TTCTGGCAAAAGGTGATACT (DNA, all phosphorothioate, methylation of C not given here) [AS-II-1538-20] — higher, 50.62%
- TTTTAACTGGCTGTGCTGGT (DNA, all phosphorothioate, methylation of C not given here) [AS-II-1666-20] — higher, 49.72%

test system: T24 bladder cell carcinoma; test: as above; type: cell-based, human; conditions: 0.2 μM antisense oligodeoxyribonucleotide phosphorothioate; T24 cells; averages of 2-8 determinations

Point of comparison: “TCGCCTACTCTCTTCTCAAA (DNA, all phosphorothioate, methylation of C not given here) [AS-II-1278-20]”, “Reduced relative colony forming efficiency, expressed as % inhibition, T24” value 65.42%. Against it:
- TCAGCATCCAAGGTAAAAGA (DNA, all phosphorothioate, methylation of C not given here) [AS-II-1338-20] — lower, 63.16%
- TGGCTGTGCTGGTTAAAGGA (DNA, all phosphorothioate, methylation of C not given here) [AS-II-1659-20] — higher, 74.09%
- TGGGACAGGGTGCACGGGCG (antisense dT*dG*dG*dG*dA*dC*dA*dG*dG*dG*dT*dG*dC*dA*dC*dG*dG*dG*dC*dG) [AS-II-130-20] — lower, 51.94%
- TTCATGGTGTGGCTAGTTGG (DNA, all phosphorothioate, methylation of C not given here) [AS-II-1438-20] — lower, 43.7%
- TTCTGGCAAAAGGTGATACT (DNA, all phosphorothioate, methylation of C not given here) [AS-II-1538-20] — higher, 67.29%
- TTTTAACTGGCTGTGCTGGT (DNA, all phosphorothioate, methylation of C not given here) [AS-II-1666-20] — higher, 71.71%

test system: MDA-MB-231 breast cell adenocarcinoma; test: Relative colony forming efficiency after antisense treatment (Table 13, FIG. 11, FIG. 12); type: cell-based, human; conditions: 0.2 μM antisense oligodeoxyribonucleotide phosphorothioate; MDA-MB-231 cells; averages of 2-8 determinations
Procedure: Colony forming efficiency was determined as previously reported [Huang and Wright, 1994]. The cells were cultured for 24 hours at 37° C. in growth medium with 10% fetal bovine serum. The cells were washed in 5 ml phosphate buffered saline, pH 7.2, once prior to lipofectin+/−oligonucleotide treatment.
The oligonucleotides being tested were added to cell cultures in the presence of 2.5 μg of DOTMA/DOPE (Lipofectin; Life Technologies, Inc.) for four hours. The oligonucleotide was tested at 0.2 μM unless otherwise indicated. Controls were the cultures treated with lipofectin but without the oligonucleotide. After 4 hours the medium containing the oligonucleotide was removed and washed with 5 ml of growth medium. The cells were then cultured in growth medium containing 10% fetal bovine serum for seven to ten days. Surviving cells were visualized by methylene blue staining, and colonies were scored. In some experiments cell aliquotes were removed from the culture and viability was determined using the trypan blue exclusion test [Phillips, 1973]. Results were analyzed as percent of surviving cells compared to control cells.
To test the antisense effects of many of these sequences as phosphorthioate deoxyribonucleotides, they were examined in relative colony forming experiments performed with a series of human tumor cell lines. Many of these antisense constructs, as predicted, are potent inhibitors of human tumor cell proliferation. For results obtained with cancer cells derived from the bladder, breast, lung, colon, pancreas, prostate, liver and cervix, see Table 13. In addition, in vivo studies with AS-II-626-20 were undertaken in C3H/HeN mice as reported in Table 14 and show a significant reduction in metastasis in the antisense treated mice.
Colony forming ability of MDA-MB-231 human breast cancer cells treated with 28 different antisense oligonucleotides was estimated as previously described (Choy et al., 1988). Aliquots of cell suspension were seeded into 60 mm Petri dishes and incubated at 37° C. overnight in α-MEM medium supplemented with 10% fetal bovine serum. Cells were washed in 5 ml of phosphate buffered saline, pH 7.2, prior to 0.2 μM antisense/lipofectin treatments for 4 hours. The media containing the antisense oligonucleotides were removed and cells were washed once and cultured in growth medium for 7 to 10 days. Colonies were stained with methylene blue and scored as described (Choy et al., 1988; Huang and Wright 1994). Percent inhibition was calculated by comparison with the number of colonies present in cultures grown in the absence of antisense oligonucleotides. All experiments were performed in quadruplicate. FIG. 11 is a graph of the percentage inhibition of colony formation by treatment with the various antisense oligonucleotides.
Colony forming ability of various human tumor cell lines was estimated by determining relative colony forming efficiencies (Choy et al., 1988). Cells from various cell lines were washed in 5 ml of phosphate buffered saline, pH 7.2. The cells were treated with 0.2 μM AS-I-618-20 antisense oligonucleotide/lipofectin for 4 hours. The medium containing the antisense oligonucleotide was then removed and the cells were gently washed with 5 ml of growth medium. The cells were cultured in growth medium containing 10% fetal bovine serum for seven to ten days. […] The following human tumor cell lines were evaluated: HepG2 (liver), SK-OV-3 (ovary), U87 (brain), A2058 (melanoma), H460 (lung), MDA-MB-231 (breast) and AsPC-1 (pancreas).

Point of comparison: “TTCATGGTGTGGCTAGTTGG (DNA, all phosphorothioate, methylation of C not given here) [AS-II-1438-20]”, “Reduced relative colony forming efficiency, expressed as % inhibition, MDA-MB-231” value 69.06%. Against it:
- TCGCCTACTCTCTTCTCAAA (DNA, all phosphorothioate, methylation of C not given here) [AS-II-1278-20] — higher, 90.68%
- TGGCACCAACTGACTAATAT (antisense; DNA, all phosphorothioate, methylation of C not given here) [AS-II-1976-20] — higher, 89.6%
- TGGCTGTGCTGGTTAAAGGA (DNA, all phosphorothioate, methylation of C not given here) [AS-II-1659-20] — lower, 42.86%
- TTTTAACTGGCTGTGCTGGT (DNA, all phosphorothioate, methylation of C not given here) [AS-II-1666-20] — lower, 26.71%

test system: A549 lung cell carcinoma; test: Relative colony forming efficiency after antisense treatment (Table 13); type: cell-based, human; conditions: 0.2 μM antisense oligodeoxyribonucleotide phosphorothioate; A549 cells; averages of 2-8 determinations

Point of comparison: “TGGCTGTGCTGGTTAAAGGA (DNA, all phosphorothioate, methylation of C not given here) [AS-II-1659-20]”, “Reduced relative colony forming efficiency, expressed as % inhibition, A549” value 54.7%. Against it:
- TCAGCATCCAAGGTAAAAGA (DNA, all phosphorothioate, methylation of C not given here) [AS-II-1338-20] — higher, 63.93%
- TGGGACAGGGTGCACGGGCG (antisense dT*dG*dG*dG*dA*dC*dA*dG*dG*dG*dT*dG*dC*dA*dC*dG*dG*dG*dC*dG) [AS-II-130-20] — higher, 86.48%
- TTCATGGTGTGGCTAGTTGG (DNA, all phosphorothioate, methylation of C not given here) [AS-II-1438-20] — lower, 51.27%
- TTCTGGCAAAAGGTGATACT (DNA, all phosphorothioate, methylation of C not given here) [AS-II-1538-20] — higher, 90.34%
- TTTTAACTGGCTGTGCTGGT (DNA, all phosphorothioate, methylation of C not given here) [AS-II-1666-20] — higher, 54.82%

test system: HCT116 colon cell carcinoma; test: as above; type: cell-based, human; conditions: 0.2 μM antisense oligodeoxyribonucleotide phosphorothioate; HCT116 cells; averages of 2-8 determinations

Point of comparison: “TCAGCATCCAAGGTAAAAGA (DNA, all phosphorothioate, methylation of C not given here) [AS-II-1338-20]”, “Reduced relative colony forming efficiency, expressed as % inhibition, HCT116” value 74.73%. Against it:
- TGGGACAGGGTGCACGGGCG (antisense dT*dG*dG*dG*dA*dC*dA*dG*dG*dG*dT*dG*dC*dA*dC*dG*dG*dG*dC*dG) [AS-II-130-20] — lower, 57.98%
- TTCTGGCAAAAGGTGATACT (DNA, all phosphorothioate, methylation of C not given here) [AS-II-1538-20] — lower, 51.28%

test system: HepG2 hepatocellular carcinoma; test: Relative colony forming efficiency after antisense treatment (Table 13, FIG. 12); type: cell-based, human; conditions: 0.2 μM antisense oligodeoxyribonucleotide phosphorothioate; HepG2 cells; averages of 2-8 determinations

Point of comparison: “TTCTGGCAAAAGGTGATACT (DNA, all phosphorothioate, methylation of C not given here) [AS-II-1538-20]”, “Reduced relative colony forming efficiency, expressed as % inhibition, HepG2” value 96.84%. Against it:
- TCAGCATCCAAGGTAAAAGA (DNA, all phosphorothioate, methylation of C not given here) [AS-II-1338-20] — lower, 80.41%
- TGGGACAGGGTGCACGGGCG (antisense dT*dG*dG*dG*dA*dC*dA*dG*dG*dG*dT*dG*dC*dA*dC*dG*dG*dG*dC*dG) [AS-II-130-20] — lower, 94.28%
